Measurements from patent publication US20260327263A1, “Anti-Bacterial Peptides” (priority 2023, published 2026).
Where “and” joins values, the source holds several entries; their conditions need not be identical. Equal entries are not always repeated. Entries after “also recorded” stand apart in the source; their conditions may differ. Where no end group is shown, it is not given here.

What was measured:
[1] = tested on: Pseudomonas aeruginosa (PA); experiment: Time-kill assay, Pseudomonas aeruginosa; assay type: cell-based; conditions: for time to kill PA (in words): 1X MBC; for Time kill PA, >99% killing: at 1X MBC, * indicates killing within seconds
Description: (§1) The bactericidal abilities of the variant peptides are not only effective, but also fast-acting. […] The killing kinetics are detailed in Table 11 below.
(§2) Pseudomonas aeruginosa (PA) and Staphylococcus aureus (SA) strains were grown as per CLSI guidelines. AMPs were added to the bacterial cultures at their 1X MBC concentrations. Upon treatment, the bacterial cultures were enumerated for viable counts immediately within 1 min, 5 min, 15 min, 30 min and 60 min post-treatments.

[2] = tested on: Pseudomonas aeruginosa (PA); experiment: Broth microdilution anti-bacterial assay (CLSI), Pseudomonas aeruginosa; assay type: cell-based, Pseudomonas aeruginosa (ATCC 14213); conditions: for anti-bacterial activity (in words): PA and SA; for MIC / MBC: PA; for MIC: overnight, 37° C., ≥99% inhibition; for MBC: ≥99% killing
[3] = tested on: Pseudomonas aeruginosa PA CRM-9027; experiment: Broth microdilution, PA CRM-9027 (ear-eye infections); assay type: cell-based, Pseudomonas aeruginosa (CRM-9027); conditions: PA CRM-9027
Description: (§3) Bacteria strains involved in lung infection in cystic fibrosis patients (PA-BAA 2110) and ear-eye infections (PA-CRM 9027) are treated with exemplary variant peptides, such as E1AM2 and Q19L.
(§4) Examination of the potency of modified short peptides against PA and SA strains was performed by using the broth microdilution protocol from the Clinical and Laboratory Standards Institute (CLSI) guidelines (CLSI 2012) as described. Briefly, five freshly plated bacteria colonies were grown in cation adjusted MH2 broth (BD Biosciences) in a shaker incubator at 37° C., 220 RPM. Cells were grown to an optical density (OD600) of ~0.2 measured using a Microplate Spectrophotometer (Molecular Devices Spectra Max Plus). 100 μL of microbial culture containing ~5×10^5 CFU/mL of bacteria in the respective broths were introduced into each well containing 100 μL of peptides and incubated overnight at 37° C. Next, to check the bactericidal effects, 100 μL from each well was transferred and spread on sterile MH2 agar plates. The plates were incubated overnight at 37° C. and the number of colonies forming units (CFU) were calculated the following day. Readings of bacteria grown in media without any treatments were normalized to 100% as media control. For the mixed infection study, three freshly plated bacteria colonies each from PA, SA and ST plates were grown together in cation adjusted MH2 broth and proceeded as described above.

[4] = tested on: Pseudomonas aeruginosa PA BAA-2110; experiment: Broth microdilution, PA BAA-2110 (lung infection in cystic fibrosis); assay type: cell-based, Pseudomonas aeruginosa (BAA-2110); conditions: PA BAA-2110
Description: as §3, §4

[5] = tested on: Staphylococcus aureus (SA); experiment: Antimicrobial resistance evolution assay, SA; assay type: cell-based; conditions: serial passaging; resistance = >4-fold MIC change
Source text: (§5) The development of antimicrobial resistance is defined by greater than a 4-fold change to their initial minimum inhibitory concentration (MIC) at day 1. Exemplary bacteria strains Pseudomonas aeruginosa (PA) and Staphylococcus aureus (SA) are subjected to continuous daily serial passaging over several days, with treatment of exemplary variant peptides E1AM2 (SEQ ID NO: 2) and Q19L (SEQ ID NO: […]) at subinhibitory concentrations. […] The treatments were discontinued when the MIC increased by more than four-fold from the initial MIC or when MIC reached >100 μM.
(§6) Briefly, sequential passaging of PA, and SA cells was done with sub-inhibitory concentrations of antibiotics or E1AM2 up to 4 weeks. The cells grown in those concentrations of antibiotics or peptides were diluted to A600 nm (OD600) of ~0.2 and serially passaged daily with the same concentrations at 37° C. with agitation at 24 h intervals.

[6] = tested on: human keratinocytes; experiment: 2D scratch assay, keratinocyte migration; assay type: cell-based
Description: Wound healing is directly associated with the migration speed of keratinocytes. The migration speed of human keratinocytes in presence of E1AM2, V8L (SEQ ID NO: 19), and Q19L variants is tested in comparison with pexiganan (SEQ ID NO: 54). Migration speed of human keratinocytes assessed in a 2D scratch assay at D 0 and D 2 timepoints. Decrease in wound area over time was measured by applying an ImageJ plugin ‘Wound Healing Size Tool’ on bright-field images. The change in wound area over the course of 48 hours was used as a measure of the migration speed of keratinocytes. Each value is the mean±SD (n=3). The p-value was calculated using ANOVA for multiple comparisons (Dunnett's multiple comparisons test). **** p<0.0001. *** p<0.001. ** p <0.01. * p<0.05. […] Both peptides healed wound faster within their respective MIC and MBC concentrations. […] SEQ ID NO: 27=Q19L; SEQ ID NO: 2=E1AM2; SEQ ID NO: 19=V8L.
(§7) Wound closure was compared with the untreated samples (circle, red highlight). For improved clarity, error bars have been omitted from this representation. […] Each value is the mean±SD (n=3). Statistical significance was assessed using ANOVA for multiple comparisons (Dunnett's multiple comparisons test). **** p<0.0001, *** p<0.001, ** p<0.01, *p<0.05, ns denotes nonsignificance, p >0.05.
Wound areas of the human keratinocyte culture were assessed in presence of peptides in a 2D scratch assay at the 0 hour, and 48-hour time points by applying an ImageJ plugin, ‘Wound Healing Size Tool’ on brightfield images. Quantification of wound width was calculated by obtaining the averaged Euclidean distance between each paired pixel at the lateral wound edges. The change in wound area over the course of 48 hours was used as a measure of the migration speed of keratinocytes.
Using the inverted BioTek Lionheart LX Automated Microscope, brightfield images were obtained at 4× magnification to observe the wound area at timepoints 0 (before treatment) and 48 hours-post treatment. Microscopy settings were maintained as focus offset (781.3 μm), illumination (2), integration Time (21) with no gain. To cover the entire well, montage images of four rows by three columns were stitched together by enabling the “image stitching” function and images were saved in tiff-format.

[7] = tested on: Pseudomonas aeruginosa (PA); experiment: Antimicrobial resistance evolution assay, PA; assay type: cell-based; conditions: for development of antimicrobial resistance, PA: serial passaging, 28 days, resistance = >4-fold MIC change
Source text: as §5, §6

[8] = tested on: Staphylococcus aureus (SA); experiment: Time-kill assay, Staphylococcus aureus; assay type: cell-based; conditions: for Time kill SA, >99% killing: at 1X MBC, * indicates killing within seconds
Description: as §1, §2

[9] = tested on: Staphylococcus aureus (SA); experiment: Broth microdilution anti-bacterial assay (CLSI), Staphylococcus aureus; assay type: cell-based; conditions: SA; for MIC: overnight, 37° C., ≥99% inhibition; for MBC: ≥99% killing
[10] = tested on: human keratinocytes (HaCaT); experiment: Cell proliferation assay, HaCaT keratinocytes; assay type: cell-based
Description: as §7
CyQUANT™ Direct Cell Proliferation Assay (ThermoFisher Scientific, Catalogue) was performed as per manufacturer's instructions to determine the safety of the peptides to human keratinocytes. […] The fluorescence intensity and number of stained cells were determined using the LionHeart FX Automated Microscope (BioTek, VT, USA).

[11] = tested on: human red blood cells (hRBCs); experiment: Hemolysis assay; assay type: cell-based; conditions: hRBCs; for minimum concentration corresponding to 10% hemolysis (HC): 37° C., 30 min; for hemolysis (in words): FIG. 8 up to 100 μM
Description: (§8) The hemolytic score of the peptide variants and pexiganan (SEQ ID NO: 54) are compared to a strong hemolytic peptide, melittin 12 as a control. […] The minimum peptide concentration corresponding to 10% hemolysis (minimal hemolysis concentration, HC) of E1AM2=50 μM, V8LQ19L=12.5 μM, V8LQ19L C-2=3.125 μM, and pexiganan=12.5 μM respectively. Readings of the melittin at 3.125 μM were normalised to 100%.
(§9) Examination of hemolytic activity of ultra-short peptides was performed by isolating the red blood cells (RBCs) from human blood samples by centrifugation (1000 g, 4° C., 10 min) and resuspension in 27 mL PBS. This washing step was repeated four times before the RBCs were diluted to a 10% (v/v) suspension. […] Hemolytic properties of E1AM2 and pexiganan were evaluated with melittin used as a positive control, and PBS as a negative control. The plates were incubated at 37° C., for 30 min and then centrifuged (1258 g, 4° C., 6 min). 75 μL of supernatant were transferred into a flat-bottom clear 96-well plate and the OD576 nm was read. Readings of the melittin sample at 3.125 μM were normalized to 100%.

[12] = Comparison of AMPs in clinical trial with V8LQ19L (Table 13); conditions: ✓ / X
[13] = tested on: mixed bacterial infection (PA, SA and ST); experiment: Broth microdilution, mixed bacterial infection; assay type: cell-based; conditions: mixed infection
Description: Chronic wounds mostly present mixed infections where numerous pathogens colonize together.
as §4

[14] = tested on: fibroblasts (HFF-1); experiment: Cell proliferation assay, HFF-1 fibroblasts; assay type: cell-based; conditions: 24 h
[15] = Hemolysis assay; assay type: cell-based, human; conditions: human, red blood cells; at respective MIC/MBC concentrations; melittin 3.125 μM = 100%
Description: as §8, §9

Row | Molecule | time to kill PA (in words) [1] | Time kill PA, >99% killing [1] [min] | anti-bacterial activity (in words) [2] | MIC [2] [µM] | MBC [2] | MBC [3] [µM] | MIC [3] [µM] | MBC [4] [µM] | MIC [4] [µM] | development of antimicrobial resistance, PA [7] | Time kill SA, >99% killing [8] [min] | MIC [9] | MBC [9] [µM] | minimum concentration corresponding to 10% hemolysis (HC) [11] [µM] | hemolysis (in words) [11] | further results
1 | KKLLKKWVKLSKKALKLALSL-NH2 [Q19L] | within minutes | >1.5 | reduction in the minimum inhibitory concentration (MIC) and minimum bactericidal concentration (MBC) values | 3.125 | 3.125 µM and 6.25 µM | 6.25 | 6.25 | 6.25 | 6.25 | prevented resistance acquisition | 1 | 3.125 µM | 3.125 |  |  | development of antimicrobial resistance, SA [5]: prevented resistance development; migration speed of keratinocytes ([6]; 48 h, E1AM2 3.125-12.5 μM, Q19L 3.125-6.25 μM): increase keratinocyte migration; also recorded: increased the migration speed of keratinocytes significantly; migration delay of keratinocytes ([6]; only at highest concentrations (100 μM)): significant migration delay; time to kill SA (in words) ([8]; 1X MBC): within minutes
2 | GIGKFLKKAKKFGKAFVKILKK-NH2 [Pexiganan, reference compound] | took the longest time to kill >99% PA | >5 to 15 |  | 3.125 | 6.25 µM | 3.125 | 3.125 | 6.25 | 3.125 | developed resistance | 1 | 6.25 µM and 6.12 µM | 12.5 | 12.5 | none of the peptide variants or pexiganan caused significant hemolysis | Cytotoxicity at high concentration (100 μM) ([10]; 100 μM, cell line not named in Table 15): Cytotoxic; MIC ([2]; listed as PEX): 3.128 µM and 3.125 µM; MBC ([2]; listed as PEX): 6.25 µM and 8.25 µM; Broad spectrum activity [12]: ✓; Healing support [12]: ✓; MBC [13]: 12.5 µM; MIC [13]: 6.25 µM; HFF-1 proliferation ([14]; certain concentrations): enhanced proliferation; AMR prevention / resistance induction ([7]; Table 15: in PA and SA, bacteria not named): Gives rise to AMR; MIC/MBC relative to E1AM2, SA [9]: two-higher value; MIC ([9]; listed as PEX): 6.25 µM and 6.26 µM; MBC ([9]; listed as PEX): 12.8 µM and 12.5 µM and 12.6 µM
3 | OO [H2O2, hydrogen peroxide, reference compound] |  |  |  |  |  |  |  |  |  |  |  |  |  |  |  | cytotoxicity to HaCaT ([10]; 24 h, up to highest tested concentrations (peptide), 3% (H2O2)): significant cytotoxicity; cytotoxicity to HFF-1 ([14]; up to highest tested concentrations (peptide), 3% (H2O2)): significant cytotoxicity
4 | KKLLKKWLKLSKKALKLAL-NH2 [V8LQ19L C-2] |  |  | strong potency | 1.56 | 1.56 µM |  |  |  |  |  |  | 1.56 µM | 1.56 | 3.125 | do not cause hemolysis | hemolysis at 0.5 h [15]: ~0%
